Results taken from patent US3969521A, “Pharmaceutical compositions containing tetrahydroalstonine and method for treating circulation disorders” (Science Union et Cie, Societe Francaise de Recherche Medical, priority 1974, dated 1976).

Experiments:
[1] = system: blood-sugar levels; conditions: rat, thesis (Kocialski); cited from earlier work
[2] = system: femoral blood flow; assay: Femoral blood flow, anaesthetized dogs; format: in vivo, dog; conditions: 100 mg/kg perorally
Description: Femoral blood flow was measured with an electromagnetic flowmeter (Statham).

[3] = system: brain blood circulation; assay: Effect on the brain blood circulation and on the consumption of oxygen and glucose by the brain, anaesthetized dogs; format: in vivo, dog; set-up: O2 cap. = amount of oxygen supplied to the brain tissues / art. QO2 / QO2: unit not given here; conditions: 100 mg/kg perorally
Text: Effect of tetrahydroalstonine on the brain blood circulation and on the consumption of oxygen and of glucose by the brain.
On arterial and venous blood sample the concentration of glucose has been determined enzymatically according to the method of hexokinase (C. Hennon and co-workers).
The determination of the pressure of oxygene (PO2) has been carried out with a polarographic analyser and that of carbonic anhydride (PCO2) in the arterial or venous brain blood, using a Duo-Matic electrometer IL 123.

## COC(=O)C1=CO[C@@H](C)[C@@H]2CN3CCc4c([nH]c5ccccc45)[C@@H]3C[C@H]12 [Tetrahydroalstonine]
[1]
  effect on blood-sugar levels: negative
[2]
  vasodilatory effect on the femoral blood flow: clear
[2]; 45 minutes (Table I)
  Femoral vein flow: 38,0
[2]; 67 minutes (Table I)
  Femoral vein flow: 38,7
[2]; 90 minutes (Table I)
  Femoral vein flow: 37,1
[2]; 112 minutes (Table I)
  Femoral vein flow: 34,5
[2]; 135 minutes (Table I)
  Femoral vein flow: 27,7
[3]
  concentration of oxygen in the brain capillars: increased
  consumption of glucose by the brain: increase
  consumption of oxygen per minute: increased
  difference in concentration between arterial and venous oxygen: increased
  partial pressure in brain venous oxygen (PO2 VC): decrease
[3]; 45 minutes (Table I)
  Cerebral flow: 89,8 ml/mn
  Concentration in capillary oxygen: 9,3
  Concentration in oxygen/mn: 12,8
  Consumption in glucose/mn: 7,1
  G/O = consumption in glucose per mn / concentration in oxygen: 0,6
  QO2: 14,3
[3]; 67 minutes (Table I)
  Cerebral flow: 92,4 ml/mn
  Concentration in capillary oxygen: 8,7
  Concentration in oxygen/mn: 12,4
  Consumption in glucose/mn: 10,7
  G/O = consumption in glucose per mn / concentration in oxygen: 0,9
  QO2: 13,1
[3]; 90 minutes (Table I)
  Cerebral flow: 95,8 ml/mn
  Concentration in capillary oxygen: 8,5
  Concentration in oxygen/mn: 12,4
  Consumption in glucose/mn: 11,3
  G/O = consumption in glucose per mn / concentration in oxygen: 1,0
  QO2: 12,6
[3]; 112 minutes (Table I)
  Cerebral flow: 90,6 ml/mn
  Concentration in capillary oxygen: 8,4
  Concentration in oxygen/mn: 11,5
  Consumption in glucose/mn: 12,1
  G/O = consumption in glucose per mn / concentration in oxygen: 1,1
  QO2: 12,4
[3]; 135 minutes (Table I)
  Cerebral flow: 84,8 ml/mn
  Concentration in capillary oxygen: 8,5
  Concentration in oxygen/mn: 11,4
  Consumption in glucose/mn: 10,9
  G/O = consumption in glucose per mn / concentration in oxygen: 1,2
  QO2: 12,9
[3]; +45 min. (Table II)
  CE p. 100 glucose: 8,22 p. 100
  DC = Cerebral blood flow: 90,0 ml/mn
  G/O: 1,08
  O2 /min.: 6,14
  O2 cap. = amount of oxygen supplied to the brain tissues: 5,05
  PO2 vc = partial pressure of venous oxygen in the brain: 28,50
  art. QO2: 14,16
  art. pH: 7,39
  arterial Q gluc.: 900 mg
  consumption in Gluc./min.: 6,66
  ΔH^+/ΔQO2: -4,44
  ΔPCO2/ΔQO2: 109,97
  ΔQO2: +6,82
[3]; +67 min. (Table II)
  CE p. 100 glucose: 12,73 p. 100
  DC = Cerebral blood flow: 99,0 ml/mn
  G/O: 1,38
  O2 /min.: 8,40
  O2 cap. = amount of oxygen supplied to the brain tissues: 5,95
  PO2 vc = partial pressure of venous oxygen in the brain: 24,25
  art. QO2: 14,50
  art. pH: 7,425
  arterial Q gluc.: 919 mg
  consumption in Gluc./min.: 11,58
  ΔH^+/ΔQO2: -6,75
  ΔPCO2/ΔQO2: 114,84
  ΔQO2: +8,49
[3]; +90 min. (Table II)
  CE p. 100 glucose: 11,70 p. 100
  DC = Cerebral blood flow: 112,5 ml/mn
  G/O: 1,20
  O2 /min.: 10,38
  O2 cap. = amount of oxygen supplied to the brain tissues: 6,07
  PO2 vc = partial pressure of venous oxygen in the brain: 21,75
  art. QO2: 14,25
  art. pH: 7,455
  arterial Q gluc.: 949 mg
  consumption in Gluc./min.: 12,49
  ΔH^+/ΔQO2: -7,96
  ΔPCO2/ΔQO2: 111,05
  ΔQO2: +9,23
[3]; +112 min. (Table II)
  CE p. 100 glucose: 12,24 p. 100
  DC = Cerebral blood flow: 112,5 ml/mn
  G/O: 1,37
  O2 /min.: 9,74
  O2 cap. = amount of oxygen supplied to the brain tissues: 5,88
  PO2 vc = partial pressure of venous oxygen in the brain: 23,0
  art. QO2: 13,95
  art. pH: 7,44
  arterial Q gluc.: 972 mg
  consumption in Gluc./min.: 13,39
  ΔH^+/ΔQO2: -7,39
  ΔPCO2/ΔQO2: 103,93
  ΔQO2: +8,66
[3]; +135 min. (Table II)
  CE p. 100 glucose: 12,84 p. 100
  DC = Cerebral blood flow: 92,0 ml/mn
  G/O: 1,28
  O2 /min.: 9,22
  O2 cap. = amount of oxygen supplied to the brain tissues: 6,33
  PO2 vc = partial pressure of venous oxygen in the brain: 19,75
  art. QO2: 14,18
  art. pH: 7,48
  arterial Q gluc.: 997 mg
  consumption in Gluc./min.: 11,78
  ΔH^+/ΔQO2: -8,75
  ΔPCO2/ΔQO2: 129,74
  ΔQO2: +10,02
[3]; conclusion
  blood flow: noticeable and extended over a large period of time increase
  brain metabolism: significant improvement
